Our source for the IC50 values is PMC3256935 (Journal of Medicinal Chemistry, 2011).

For the assay, the target named is T1, TbNMT (Trypanosoma brucei brucei, UniProt Q388H8).
T1 sequence (Q388H8 1-446): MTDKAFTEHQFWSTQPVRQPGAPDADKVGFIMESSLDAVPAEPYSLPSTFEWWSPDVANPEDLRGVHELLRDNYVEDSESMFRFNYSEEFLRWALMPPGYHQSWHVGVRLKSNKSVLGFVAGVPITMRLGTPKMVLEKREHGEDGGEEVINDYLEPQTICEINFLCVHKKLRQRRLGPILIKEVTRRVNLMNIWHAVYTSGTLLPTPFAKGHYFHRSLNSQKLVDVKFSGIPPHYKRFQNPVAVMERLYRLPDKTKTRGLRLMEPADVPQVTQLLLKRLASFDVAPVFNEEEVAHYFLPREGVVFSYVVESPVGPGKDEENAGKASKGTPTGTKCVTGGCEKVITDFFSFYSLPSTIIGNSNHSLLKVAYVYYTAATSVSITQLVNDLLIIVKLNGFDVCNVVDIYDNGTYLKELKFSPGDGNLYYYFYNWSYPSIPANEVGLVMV
Kind of assay: biochemical.

As usually defined, the IC50 is the midpoint of a concentration-inhibition curve. A lower IC50 goes with greater potency in that assay. Take `Cc1nn(C)c(C)c1NCc1ccc(Br)cc1` [Compound 21]: the IC50 is over 100 µM.
